The values that follow come from patent US12150934B2 (Bantam Pharmaceutical, LLC, priority 2016, dated 2024).

The subject of one assay is BJAB cells. The assay can be described thus: BJAB cell proliferation (Cell Titer Glo). To be noted: approximately 72 hours; for EC50: Homo sapiens. The assay is classed as cell-based. On the procedure: Cells were seeded in white Corning Costar 96-well assay plates at 2500 cells/well in 50 μL of medium. Serial dilutions of test compounds were made in cell culture medium/FBS+0.2% DMSO, and transferred to assay plates in a volume of 50 μL (DMSO at 0.1% final). Plates were maintained at 37° C. for approximately 72 hours. The effect of compounds on cell proliferation was evaluated using the Cell Titer Glo reagent (Promega), according to the manufacturer's instructions. Briefly, 100 μL of reagent was added per well, and after a 10 minute incubation luminescence values were determined on a plate reader (Tecan F200PRO). The percent of luminescence signal relative to untreated controls was calculated for each compound concentration, and EC50 values were determined from dose response data by non-linear regression analysis using Prism (GraphPad). The mTor inhibitor Torin1 (Liu, et al. (2010) J. Med. Chem. 53, 7146) was used as a control. The data are summarized in the compound table provided above.
For orientation: ATP-based viability assays read luminescence as a measure of living cells.

The subject of another assay is HCT116 cells. The assay can be described thus: Effect on glutathione levels with menadione and N-acetyl cysteine. Particulars: FIG. 3. It is filed as cell-based. On the procedure: Effect on Glutathione levels: BJAB and HCT116 cells were maintained in RPMI medium (Wisent) or McCoy's medium (Wisent), respectively. 5000 cells/well were transferred to clear-bottom 96-well assay plates (Thermo Fisher) in a volume of 50 μL. Plates were incubated overnight at 37° C. in 5% CO2, in an unsealed plastic bag with damp paper. Menadione (Sigma) was dissolved in DMSO and diluted in 10% heat inactivated FBS plus culture medium to 20 μM and 5 μM (0.2% DMSO for each). Culture medium was gently aspirated from cells and replaced by 50 μl diluted menadione or 0.2% DMSO for controls. Test compound was diluted to 80 μM (0.2% DMSO) in 10% heat inactivated FBS plus culture medium then diluted further to 5 μM, 1 μM, 0.5 μM and 0.05 μM (in 0.2% DMSO). 50 μL test compound solution was added to each well, with or without menadione. One μL of an N-acetyl cysteine (Sigma) solution at 100 mM in water was added where indicated. Assay plates were incubated for the times indicated at 37° C. 5% CO2 in opened plastic bag with damp paper. Total glutathione levels were determined according to the procedure described above.

One may read the EC50 as the midpoint of the concentration-response curve. A higher EC50 goes with a need for much substance. The compound `Cc1nn(C)cc1-c1c(C)nn(-c2nc(-c3ccc(Cl)c(Cl)c3)c(SC(C)C)s2)c1C(=O)O` [Compound 22, 2-(4-(3,4-dichlorophenyl)-5-(isopropylthio)thiazol-2-yl)-2′,5,5′-trimethyl-4,4′-bi(2H-pyrazole)-3-carboxylic acid] gave an EC50 with BJAB cells of 10 to 25 µM. In the assay with BJAB cells, `CCC(C)Sc1sc(-n2nc(C)c(-c3cc(C)nc(C)c3)c2C(=O)O)nc1-c1ccc(Cl)c(Cl)c1` (centres unmarked) [Compound 33b] returned a concentration for a half-maximal effect (EC50) below 1 µM. In the assay with BJAB cells, `CSc1sc(-n2nc(C)c(Cc3ccccc3[N+](=O)[O-])c2C(=O)O)nc1-c1ccc(Cl)c(Cl)c1` [Compound 45, 1-(4-(3,4-dichlorophenyl)-5-(methylthio)thiazol-2-yl)-3-methyl-4-(2-nitrobenzyl)-1H-pyrazole-5-carboxylic acid] gave a concentration giving a half-maximal response (EC50) of 25 to 50 µM. Same read-out and setting: next, `Cc1nn(-c2nc(-c3cc(Cl)cc(Cl)c3)c(SC(C)C)s2)c(C(=O)O)c1-c1cc(Cl)cc(Cl)c1` [Compound 150, 4-(3,5-dichlorophenyl)-1-(4-(3,5-dichlorophenyl)-5-(isopropylthio)thiazol-2-yl)-3-methyl-1H-pyrazole-5-carboxylic acid]: 1 to 5 µM. Regarding `Cc1nn(-c2nc(-c3ccc(Cl)c(Cl)c3)c(SC(C)C)s2)c(C(=O)O)c1-c1cccc(F)c1` [Compound 151, 1-(4-(3,4-dichlorophenyl)-5-(isopropylthio)thiazol-2-yl)-4-(3-fluorophenyl)-3-methyl-1H-pyrazole-5-carboxylic acid], the “EC50 (BJAB cell proliferation)” value in the assay on BJAB cells is recorded as “A,B”. In turn, `COCCOc1cc(Cl)cc(-c2c(C)nn(-c3nc(-c4ccc(Cl)c(Cl)c4)c(SC(C)C)s3)c2C(=O)O)c1` [Compound 175, 4-(3-chloro-5-(2-methoxyethoxy)phenyl)-1-(4-(3,4-dichlorophenyl)-5-(isopropylthio)thiazol-2-yl)-3-methyl-1H-pyrazole-5-carboxylic acid] had a concentration for a half-maximal effect (EC50) in the assay with BJAB cells of 1 to 5 µM.

`Cc1nn(-c2nc(-c3cccc(F)c3)c(SC(C)C)s2)c(C(=O)O)c1-c1cccc(F)c1` [Compound 201a] gave an EC50 with BJAB cells of 25 to 50 µM.

With `Cc1nn(-c2nc(-c3cc4ccccc4o3)c(SC(C)C)s2)c(C(=O)O)c1-c1cccc(F)c1` [Compound 201b], the EC50 with BJAB cells lay in the range of 10 to 25 µM. The same measure, in the same setting: next, `Cc1nn(-c2nc(-c3cncc(C#N)c3)c(SC(C)C)s2)c(C(=O)O)c1-c1cccc(F)c1` [Compound 210, 1-(4-(5-cyanopyridin-3-yl)-5-(isopropylthio)thiazol-2-yl)-4-(3-fluorophenyl)-3-methyl-1H-pyrazole-5-carboxylic acid]: above 40 µM. Take `Cc1nn(-c2nc(-c3ccc(C#N)cc3)c(SC(C)C)s2)c(C(=O)O)c1-c1cccc(F)c1` [Compound 213, 1-(4-(4-cyanophenyl)-5-(isopropylthio)thiazol-2-yl)-4-(3-fluorophenyl)-3-methyl-1H-pyrazole-5-carboxylic acid]: the concentration for a half-maximal effect (EC50) with BJAB cells was 5 to 10 µM. Compound `Cc1nn(-c2nc(-c3ccc(Cl)c(Cl)c3)c(F)s2)c(C(=O)O)c1-c1cccc(F)c1` [Compound 227, 1-(4-(3,4-dichlorophenyl)-5-fluorothiazol-2-yl)-4-(3-fluorophenyl)-3-methyl-1H-pyrazole-5-carboxylic acid] returned an EC50 in the assay on BJAB cells of 10 to 25 µM. In the assay on BJAB cells, `CCNC(=O)c1cc(-c2nc(-n3nc(C)c(-c4cccc(F)c4)c3C(=O)O)sc2SC(C)C)ccc1Cl` [Compound 243, 1-(4-(4-chloro-3-(ethylcarbamoyl)phenyl)-5-(isopropylthio)thiazol-2-yl)-4-(3-fluorophenyl)-3-methyl-1H-pyrazole-5-carboxylic acid] had an EC50 above 40 µM. For the compound `CC1=CC(=O)c2ccccc2C1=O` [menadione], the “Glutathione levels in HCT116 cells after treatment” value in the assay on HCT116 cells is reported as “reduction”. For the same compound, the “Effect of N-acetyl cysteine on the reduction of glutathione” value in the assay on HCT116 cells (presence or absence of N-acetyl cysteine) was “prevents the reduction”.
